Test results taken from publication PMC5773950 (British Journal of Pharmacology, 2018).
Like-named read-outs stand apart in the source and are kept apart here. Marks after values point to notes of the source that are not given here.

Tests used:
[1] = human
5‐HT1A receptor = biological target: T1, 5‐HT1A receptor (Homo sapiens, UniProt P08908); assay: biochemical; assay type: binding
T1 sequence (P08908 1-422): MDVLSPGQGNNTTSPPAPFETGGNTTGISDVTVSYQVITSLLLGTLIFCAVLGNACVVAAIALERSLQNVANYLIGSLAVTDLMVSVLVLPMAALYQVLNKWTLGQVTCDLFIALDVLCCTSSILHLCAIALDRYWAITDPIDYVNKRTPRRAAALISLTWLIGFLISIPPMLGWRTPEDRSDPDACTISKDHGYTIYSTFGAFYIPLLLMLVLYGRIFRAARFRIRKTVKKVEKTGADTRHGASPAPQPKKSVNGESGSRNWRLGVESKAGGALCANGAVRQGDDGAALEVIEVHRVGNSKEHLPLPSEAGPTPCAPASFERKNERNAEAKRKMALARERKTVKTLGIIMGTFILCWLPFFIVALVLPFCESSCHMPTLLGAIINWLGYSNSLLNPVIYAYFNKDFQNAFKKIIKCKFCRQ

[2] = human; remark: listed apart in the source
5‐HT2A receptor = 5‐HT2A receptor (Homo sapiens, UniProt P28223); assay: biochemical; assay type: binding
human SERT [3] = biological target: T2, human SERT (Homo sapiens, UniProt P31645); assay: cell-based
human NET [4] = biological target: T3, human NET (Homo sapiens, UniProt P23975); assay: cell-based; assay type: cell-based
human DAT = human DAT (Homo sapiens, UniProt Q01959); assay: cell-based
[5] = human, in vivo
[6] = mouse; cited from earlier work
5‐HT2C receptor = biological target: T4, 5‐HT2C receptor (Homo sapiens, UniProt P28335); assay: biochemical; assay type: binding
T4 sequence (P28335 33-458): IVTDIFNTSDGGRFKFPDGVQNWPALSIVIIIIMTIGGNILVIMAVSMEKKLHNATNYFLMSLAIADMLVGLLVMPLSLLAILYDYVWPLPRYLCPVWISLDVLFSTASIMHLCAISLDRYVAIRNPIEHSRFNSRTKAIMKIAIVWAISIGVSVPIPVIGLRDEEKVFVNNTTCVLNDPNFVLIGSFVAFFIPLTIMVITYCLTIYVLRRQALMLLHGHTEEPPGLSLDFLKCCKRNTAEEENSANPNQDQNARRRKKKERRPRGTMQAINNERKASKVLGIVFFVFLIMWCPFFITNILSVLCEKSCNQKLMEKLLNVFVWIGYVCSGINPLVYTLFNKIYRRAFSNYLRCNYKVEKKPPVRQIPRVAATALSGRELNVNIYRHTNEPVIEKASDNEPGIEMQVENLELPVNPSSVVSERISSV

[7] = in vivo
[8] = in vivo; cited from earlier work
human SERT [9] = biological target: T2, human SERT; assay: Transporter-mediated 5-HT release from preloaded HEK 293 cells; assay type: cell-based; details: 100 μM, 15 min, compared with citalopram (negative control)
human NET [10] = biological target: T3, human NET; assay: Transporter-mediated noradrenaline release from preloaded HEK 293 cells; assay type: cell-based; details: 100 μM, 45 min, compared with nisoxetine (negative control)
[11] = read-out: 5‐HT1A Receptor binding Ki ± SD
[12] = read-out: 5‐HT2A Receptor binding Ki ± SD
[13] = read-out: 5‐HT2C Receptor binding Ki ± SD

T3 sequence (P23975 whole entry): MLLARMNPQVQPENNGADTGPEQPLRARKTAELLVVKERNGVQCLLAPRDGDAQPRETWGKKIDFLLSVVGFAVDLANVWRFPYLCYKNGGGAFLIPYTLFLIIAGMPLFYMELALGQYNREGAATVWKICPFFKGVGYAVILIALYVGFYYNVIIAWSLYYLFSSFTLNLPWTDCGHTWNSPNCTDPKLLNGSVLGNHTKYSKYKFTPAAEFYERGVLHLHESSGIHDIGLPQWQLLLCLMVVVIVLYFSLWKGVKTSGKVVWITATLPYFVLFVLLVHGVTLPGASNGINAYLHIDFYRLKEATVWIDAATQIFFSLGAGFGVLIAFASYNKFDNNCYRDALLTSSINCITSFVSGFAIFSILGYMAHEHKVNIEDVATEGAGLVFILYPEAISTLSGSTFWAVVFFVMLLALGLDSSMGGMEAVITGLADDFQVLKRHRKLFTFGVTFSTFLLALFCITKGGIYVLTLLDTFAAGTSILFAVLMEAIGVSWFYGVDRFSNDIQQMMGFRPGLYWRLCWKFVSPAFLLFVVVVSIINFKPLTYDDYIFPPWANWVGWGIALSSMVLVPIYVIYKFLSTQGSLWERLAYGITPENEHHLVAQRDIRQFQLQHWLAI
Sequence of 5‐HT2A receptor (P28223 whole entry): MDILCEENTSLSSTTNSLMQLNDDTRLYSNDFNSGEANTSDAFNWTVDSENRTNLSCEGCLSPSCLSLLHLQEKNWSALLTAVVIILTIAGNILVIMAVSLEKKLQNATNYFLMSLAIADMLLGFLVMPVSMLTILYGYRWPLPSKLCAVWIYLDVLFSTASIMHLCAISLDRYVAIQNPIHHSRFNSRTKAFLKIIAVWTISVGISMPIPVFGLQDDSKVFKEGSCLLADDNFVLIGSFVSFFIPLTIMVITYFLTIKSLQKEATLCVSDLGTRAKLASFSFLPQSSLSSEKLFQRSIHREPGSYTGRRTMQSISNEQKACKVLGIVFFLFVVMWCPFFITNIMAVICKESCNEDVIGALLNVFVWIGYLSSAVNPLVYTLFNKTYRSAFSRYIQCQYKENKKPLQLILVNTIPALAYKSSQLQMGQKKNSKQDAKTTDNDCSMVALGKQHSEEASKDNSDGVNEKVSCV
T2 sequence (P31645 whole entry): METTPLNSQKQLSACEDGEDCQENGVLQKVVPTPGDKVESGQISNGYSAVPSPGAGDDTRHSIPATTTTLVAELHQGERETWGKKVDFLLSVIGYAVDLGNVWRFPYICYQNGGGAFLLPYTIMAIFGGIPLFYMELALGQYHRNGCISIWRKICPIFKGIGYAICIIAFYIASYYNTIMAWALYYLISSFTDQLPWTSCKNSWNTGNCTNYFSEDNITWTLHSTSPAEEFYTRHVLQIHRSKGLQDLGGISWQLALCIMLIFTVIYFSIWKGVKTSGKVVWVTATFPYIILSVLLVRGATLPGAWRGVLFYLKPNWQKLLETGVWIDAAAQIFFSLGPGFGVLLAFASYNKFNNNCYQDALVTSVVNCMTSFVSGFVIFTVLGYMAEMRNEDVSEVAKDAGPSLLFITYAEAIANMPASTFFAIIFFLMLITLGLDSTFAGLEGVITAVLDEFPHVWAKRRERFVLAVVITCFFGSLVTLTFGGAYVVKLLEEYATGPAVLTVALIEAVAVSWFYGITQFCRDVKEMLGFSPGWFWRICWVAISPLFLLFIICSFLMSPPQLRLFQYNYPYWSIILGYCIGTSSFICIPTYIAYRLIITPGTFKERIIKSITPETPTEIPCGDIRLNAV
Sequence of human DAT (Q01959 whole entry): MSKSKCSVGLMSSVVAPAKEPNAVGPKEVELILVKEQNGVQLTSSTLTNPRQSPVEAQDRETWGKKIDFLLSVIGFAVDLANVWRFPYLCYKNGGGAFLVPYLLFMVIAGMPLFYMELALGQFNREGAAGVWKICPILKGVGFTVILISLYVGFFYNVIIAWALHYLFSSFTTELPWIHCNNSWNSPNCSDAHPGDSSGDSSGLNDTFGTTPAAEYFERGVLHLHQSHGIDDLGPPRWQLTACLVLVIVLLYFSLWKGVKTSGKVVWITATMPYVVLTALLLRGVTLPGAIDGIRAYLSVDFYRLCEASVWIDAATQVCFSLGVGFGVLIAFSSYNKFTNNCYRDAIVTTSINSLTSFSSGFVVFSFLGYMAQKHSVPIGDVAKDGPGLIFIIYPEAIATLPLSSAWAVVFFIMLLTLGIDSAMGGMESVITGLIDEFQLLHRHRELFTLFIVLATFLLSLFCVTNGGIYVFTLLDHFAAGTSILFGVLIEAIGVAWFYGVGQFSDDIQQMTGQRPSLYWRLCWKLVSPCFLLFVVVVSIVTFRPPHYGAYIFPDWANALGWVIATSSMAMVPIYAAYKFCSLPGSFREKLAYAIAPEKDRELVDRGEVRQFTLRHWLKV

SMILES | WHO database: cases of serotonin syndrome, only suspected cause [1] | WHO database: cases of serotonin syndrome, only suspected cause or among others [1] | Ki (5‐HT1A receptor) | Medline database: number of published cases of serotonin syndrome [2] | Ki (5‐HT2A receptor) | IC50 (human SERT [3]) | IC50 (human NET [4]) | IC50 (human DAT) | other results
CN1CC[C@]23c4c5ccc(O)c4O[C@H]2[C@@H](O)C=C[C@H]3[C@H]1C5 [Morphine] | 1 | 64 | > 17 µM | 4 | > 13 µM |  |  |  | 
COc1ccc2c3c1O[C@H]1[C@@H](O)CC[C@H]4[C@@H](C2)N(C)CC[C@@]341 [Dihydrocodeine] | 0 | 4 | > 17 µM | 0 | > 13 µM | > 100 µM | > 100 µM | > 100 µM | 
COc1ccc2c3c1O[C@H]1C(=O)CC[C@@]4(O)[C@@H](C2)N(C)CC[C@]314 [Oxycodone] | 2 | 101 | > 17 µM | 13 | > 13 µM | > 100 µM | > 100 µM | > 100 µM | IC50 (human SERT [3]; SERT inhibition in vitro IC50): > 100 µM; Cu,plasma [5]: 0.2 µM; fu,plasma [6]: 0.6
CCC(=O)C(CC(C)N(C)C)(c1ccccc1)c1ccccc1 (centres unmarked) [Methadone] | 2 | 93 | > 17 µM | 3 | 0.61 ± 0.03 µM | 0.23 µM | 4.1 µM | > 100 µM | Ki (5‐HT2C receptor): 2200 ± 300 nM; IC50 (human SERT [3]; SERT inhibition in vitro IC50): 0.23 µM
CCOC(=O)C1(c2ccccc2)CCN(C)CC1 [Pethidine] | 6 | 66 |  | 5 |  |  |  |  | Cu,brain ([7]; human): 0.7–5.4 ^h μM; Cu,plasma [5]: 0.3 to 2.3 µM; estimated maximal plasma concentration at maximal single dose ([5]; im): e Maximal concentration after a single dose of pethidine of 50 mg intramuscularly was 2 μM (Erstad et al., 1997). The drug label indicates threefold higher maximal single doses of 150 mg i.m. resulting in threefold higher estimated concentrations up to 6 μM.; Maximal plasma concentration after a single dose [8]: e Maximal concentration after a single dose of pethidine of 50 mg intramuscularly was 2 μM (Erstad et al., 1997). The drug label indicates threefold higher maximal single doses of 150 mg i.m. resulting in threefold higher estimated concentrations up to 6 μM.
CNCC[C@H](Oc1cccc2ccccc12)c1cccs1 [Duloxetine] | 550 | 993 |  | 20 |  |  |  |  | 
COc1cccc(C2(O)CCCCC2CN(C)C)c1 (centres unmarked) [Tramadol] | 62 | 647 | > 17 µM | 26 |  |  | 2.1 µM | 100 µM | Cu,brain ([7]; human): 0.1–4.6 ^j μM; Ctotal,plasma [8]: 0.1–2.5 ^a μM
CN1CC[C@]23c4c5ccc(O)c4O[C@H]2C(=O)CC[C@@]3(O)[C@H]1C5 [Oxymorphone] | 0 | 3 | > 17 µM | 0 | > 13 µM | > 100 µM | > 100 µM | > 100 µM | 
CN(C)C[C@H]1CCCC[C@]1(O)c1cccc(O)c1 (relative stereo) [O‐desmethyltramadol, O‐desmethyl‐cis‐tramadol] |  |  |  |  |  |  |  |  | Cu,brain [7]: 0.1–1.1 ^k μM; Ki (5‐HT1A receptor; [11]): > 17 µM; IC50 (human NET [4]; read-out: NET IC50 (95% CI)): 6.1 µM; Ki (5‐HT2A receptor; [12]): > 13 µM; IC50 (human DAT; read-out: DAT IC50 (95% CI)): > 100 µM
CCC(=O)C(C[C@@H](C)N(C)C)(c1ccccc1)c1ccccc1 [l(R)‐methadone] |  |  |  |  |  |  |  |  | Ki (5‐HT2C receptor; [13]): 2600 ± 300 nM; IC50 (human SERT [3]; read-out: SERT IC50 (95% CI)): 0.28 µM; Ki (5‐HT1A receptor; [11]): > 17 µM; IC50 (human NET [4]; read-out: NET IC50 (95% CI)): 2.5 µM; Ki (5‐HT2A receptor; [12]): 0.72 ± 0.61 µM; IC50 (human DAT; read-out: DAT IC50 (95% CI)): > 100 µM
CC[C@@H](c1cccc(O)c1)[C@@H](C)CN(C)C [Tapentadol] | 42 | 115 | > 17 µM | 1 | 6.3 ± 0.2 µM | 3.3 µM | 1.3 µM | 78 µM | Ki (5‐HT2C receptor): 12000 ± 3200 nM; Cu,brain ([7]; human): 0.2–3.5 ^l μM; SERT/NET ratio (95% CI) (human SERT [3]): 0.39 (0.21–0.70); Cu,plasma [5]: 0.1 to 1.5 µM; fold more potent inhibitor of the NET versus SERT (human NET [4]): 2.6 fold; Ctotal,plasma [8]: 0.1 to 1.9 µM
COc1ccc(C(CN(C)C)C2(O)CCCCC2)cc1 (centres unmarked) [Venlafaxine] | 240 | 859 | > 17 µM | 75 |  |  |  |  | Ki (5‐HT2C receptor): > 15000 nM
CN(C)CCCC1(c2ccc(F)cc2)OCc2cc(C#N)ccc21 (centres unmarked) [Citalopram] | 178 | 777 |  | 57 |  |  |  |  | 
COc1ccc2c(c1)[C@]13CCCC[C@@H]1[C@H](C2)N(C)CC3 [Dextromethorphan] | 7 | 86 | > 17 µM | 12 |  |  | 5.8 µM | > 100 µM | Cu,brain ([7]; human): 0–0.44 ^d μM
COc1ccc2c3c1O[C@H]1[C@@H](O)C=C[C@H]4[C@@H](C2)N(C)CC[C@@]341 [Codeine] | 0 | 32 | > 17 µM | 0 | > 13 µM | > 100 µM | > 100 µM | > 100 µM | 
COc1ccc2c3c1O[C@H]1C(=O)CC[C@H]4[C@@H](C2)N(C)CC[C@]314 [Hydrocodone] | 0 | 6 | > 17 µM | 2 | > 13 µM | > 100 µM | > 100 µM | > 100 µM | 
CC(=O)Oc1ccc2c3c1O[C@H]1[C@@H](OC(C)=O)C=C[C@H]4[C@@H](C2)N(C)CC[C@@]341 [Heroin, diacetylmorphine] |  |  | > 17 µM |  | > 13 µM | > 100 µM | > 100 µM | > 100 µM | 
CCC(=O)C(C[C@H](C)N(C)C)(c1ccccc1)c1ccccc1 [d(S)‐methadone] |  |  |  |  |  |  |  |  | Ki (5‐HT2C receptor; [13]): 1900 ± 200 nM; IC50 (human SERT [3]; read-out: SERT IC50 (95% CI)): 5.6 µM; Ki (5‐HT1A receptor; [11]): > 17 µM; IC50 (human NET [4]; read-out: NET IC50 (95% CI)): 69 µM; Ki (5‐HT2A receptor; [12]): 0.52 ± 0.11 µM; IC50 (human DAT; read-out: DAT IC50 (95% CI)): > 100 µM
CNCCC(Oc1ccc(C(F)(F)F)cc1)c1ccccc1 (centres unmarked) [Fluoxetine] | 181 | 641 |  | 54 |  |  |  |  | 
CC(=O)O[C@H]1C=C[C@H]2[C@H]3Cc4ccc(O)c5c4[C@@]2(CCN3C)[C@H]1O5 [6‐Acetylmorphine, 6‐acetylmorphine] |  |  | > 17 µM |  | > 13 µM | > 100 µM | > 100 µM | > 100 µM | 
CNC(C)Cc1ccc2c(c1)OCO2 (centres unmarked) [MDMA, 3,4‐Methylenedioxymethamphetamine] |  |  |  |  |  |  |  |  | Transporter-mediated 5-HT release (human SERT [9]): induced significantly greater 5‐HT and noradrenaline release; Transporter-mediated noradrenaline release (human NET [10]): induced significantly greater 5‐HT and noradrenaline release
